pIC50: −log10 of the molar value.
How the values were obtained:
[1] = system: Jurkat FADD (−/−) Cells; assay: TNF-α induced necroptosis of Jurkat FADD-deficient cells (CellTiter-Glo cell survival); format: cell-based, human; conditions: Homo sapiens; TNF-α induced necroptosis, Jurkat FADD-deficient cells, 13 hours, CellTiter-Glo; read-out: IC50
Procedure, shortened: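 Cells in RPMI 1640 with 10% FBS were pretreated for 1 h at 37 °C with compound (12-point threefold series from 25 μM, or 0.5 μM, in triplicate). They were then stimulated with TNFα added as a 5 ng/mL solution for 13 h. Survival was read by luminescence.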

[2] = Study of oral pharmacokinetics in rats; conditions: rat, in vivo, male SD rats, p.o., 5 mg/kg; for bioavailability: i.v. 1 mg/kg; for AUC(0-t): read-out: AUC0-8
Experimental: Healthy male SD rats were used as experimental animals. The intragastric (p.o.) administration was performed, with a dosage of 5 mg/kg or 15 mg/kg. Preparation: the compound was dissolved in a formulation made of 1% tween 80, 1% HMPC, and 98% water. The mixture was ground and shaken until the compound was uniformly distributed with a small particle size, and then 1 equivalent of methanesulfonic acid was added. The intravenous administration was performed with a dosage of 1 mg/kg. Preparation: 5% DMSO, 10% EtOH, 10% sulotol, and 75% physiological saline was added to the compound, and mixed well. Samples were taken at 5 minutes, 15 minutes, 30 minutes, 1 hour, 2 hours, 4 hours, 6 hours, and 8 hours after administration, and then the samples were analyzed using liquid chromatography tandem mass spectrometry (LC-MS/MS).

[3] = biological target: T1, RIPK1 (Homo sapiens, UniProt Q13546); assay: RIPK1 activity inhibition test (NANOSYN); format: biochemical; conditions: 12 concentrations, threefold dilution, 1% DMSO
T1 sequence (Q13546 1-671): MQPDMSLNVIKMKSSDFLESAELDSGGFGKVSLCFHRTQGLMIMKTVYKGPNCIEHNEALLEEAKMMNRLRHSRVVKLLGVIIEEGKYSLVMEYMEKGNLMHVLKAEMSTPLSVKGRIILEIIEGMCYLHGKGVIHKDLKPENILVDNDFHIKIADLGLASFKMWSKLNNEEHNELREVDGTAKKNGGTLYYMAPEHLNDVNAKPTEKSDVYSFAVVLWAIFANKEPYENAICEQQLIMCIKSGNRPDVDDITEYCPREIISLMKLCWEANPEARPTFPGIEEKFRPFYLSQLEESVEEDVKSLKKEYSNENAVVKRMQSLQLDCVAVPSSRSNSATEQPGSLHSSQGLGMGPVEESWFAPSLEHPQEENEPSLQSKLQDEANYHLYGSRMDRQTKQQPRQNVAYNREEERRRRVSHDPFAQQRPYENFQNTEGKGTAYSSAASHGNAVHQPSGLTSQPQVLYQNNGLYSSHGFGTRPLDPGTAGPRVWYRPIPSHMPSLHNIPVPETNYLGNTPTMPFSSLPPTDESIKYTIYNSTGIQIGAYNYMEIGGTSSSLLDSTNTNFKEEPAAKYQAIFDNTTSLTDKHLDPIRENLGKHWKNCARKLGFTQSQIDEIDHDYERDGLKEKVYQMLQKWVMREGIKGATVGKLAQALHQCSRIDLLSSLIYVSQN
Experimental: The test compounds were dissolved in DMSO, with the highest concentration being […]. Subsequently, the concentrations were serially diluted threefold, with the DMSO concentration in the test medium maintained at 1%. IC50 values were calculated from data generated prom 12 tested concentrations.

CN1C(=O)C(NC(=O)c2nnc(Cc3ccccc3)[nH]2)Cc2cn(-c3ncccc3C(F)(F)F)c3cccc1c23 (racemic) [T-40, (±)-5-benzyl-N-(1-methyl-2-oxo-6-(3-(trifluoromethyl)pyridin-2-yl)-2,3,4,6-tetrahydro-1H-azacyclo [4,3,2-cd]indol-3-yl)-4H-1,2,4-triazole-3-carboxamide]
pIC50 [1]: > 8.00
Cmax [2]: 2230 ng/mL
Tmax [2]: 1 h
half-life [2]: 3.26 h
bioavailability [2]: 31.4%
AUC(0-t) [2]: 9040 ng·h/mL

CN1C(=O)[C@@H](NC(=O)c2nnc(Cc3ccccc3)[nH]2)Cc2cn(-c3ncccc3C(F)(F)F)c3cccc1c23 [T-96, (S)-5-benzyl-N-(1-methyl-2-oxo-6-(3-(trifluoromethyl)pyridin-2-yl)-2,3,4,6-tetrahydro-1H-azacyclo [4,3,2-cd]indol-3-yl)-4H-1,2,4-triazole-3-carboxamide]
pIC50 [1]: > 8.00
pIC50 [3]: 7.82
Cmax [2]: 1270 ng/mL
Tmax [2]: 1 h
half-life [2]: 3.76 h
bioavailability [2]: 28.2%
AUC(0-t) [2]: 4900 ng·h/mL

CN1C(=O)[C@@H](NC(=O)c2nnc(Cc3ccccc3)[nH]2)Cn2cc(-c3cn(C)nc3C(F)(F)F)c3cccc1c32 [T-118, (S)-5-benzyl-N-(1-methyl-7-(1-methyl-3-(trifluoromethyl)-1H-pyrazol-4-yl)-2-oxo-1,2,3,4-tetrahydro-[1,4]diazepine [3,2,1-hi]indol-3-yl)-4H-1,2,4-triazole-3-carboxamide]
pIC50 [1]: > 8.00
pIC50 [3]: 7.60

CN1C(=O)C(NC(=O)c2nnc(Cc3ccccc3)[nH]2)Cn2cc(-c3ccnn3C)c3cccc1c32 (racemic) [T-16, (±)-5-benzyl-N-(1-methyl-7-(1-methyl-1H-pyrazol-5-yl)-2-oxy-1,2,3,4-tetrahydro-[1,4]diazepino [3,2,1-hi]indol-3-yl)-4H-1,2,4-triazole-3-carboxamide]
pIC50 [1]: > 8.00
pIC50 [3]: 7.32

CN1C(=O)C(NC(=O)c2nnc(Cc3ccccc3)[nH]2)Cc2cn(CC(=O)O)c3cccc1c23 (racemic) [T-30, (±)-2-(3-(5-benzyl-4H-1,2,4-triazole-3-carboxamide)-1-methyl-2-oxo-1,2,3,4-tetrahydro-6H-azacyclo [4,3,2-cd]indol-6-yl)acetic Acid]
pIC50 [1]: 6.00 to 7.00

CN1C(=O)C(NC(=O)c2nnc(Cc3ccccc3)[nH]2)Cn2ccc3cccc1c32 (racemic) [T-1, (±)-5-benzyl-N-(1-methyl-2-oxy-1,2,3,4-tetrahydro-[1,4]diazepino [3,2,1-hi]indol-3-yl)-4H-1,2,4-triazole-3-carboxamide]
pIC50 [1]: > 8.00

CN1C(=O)C(NC(=O)c2nnc(Cc3ccccc3)[nH]2)Cc2cn(-c3ncccc3Cl)c3cccc1c23 (racemic) [T-62, (±)-5-benzyl-N-(6-(3-chloropyridin-2-yl)-1-methyl-2-oxo-2,3,4,6-tetrahydro-1H-azacyclo [4,3,2-cd]indol-3-yl)-4H-1,2,4-triazole-3-carboxamide]
pIC50 [1]: > 8.00

Cc1cnn(C)c1-c1cn2c3c(cccc13)N(C)C(=O)C(NC(=O)c1nnc(Cc3ccccc3)[nH]1)C2 (stereo not drawn) [T-81, 5-benzyl-N-(7-(1,4-dimethyl-1H-pyrazol-5-yl)-1-methyl-2-oxo-1,2,3,4-tetrahydro-[1,4]diazepino[3,2,1-hi]indol-3-yl)-4H-1,2,4-triazole-3-carboxamide]
pIC50 [1]: > 8.00

CN1C(=O)C(NC(=O)c2nnc(Cc3ccccc3)[nH]2)Cn2cc(-c3cc(C(F)(F)F)nn3C)c3cccc1c32 (racemic) [T-18, (±)-5-benzyl-N-(1-methyl-7-(1-methyl-3-(trifluoromethyl)-1H-pyrazol-5-yl)-2-oxo-1,2,3,4-tetrahydro-[1,4]diazepino [3,2,1-hi]indol-3-yl)-4H-1,2,4-triazole-3-carboxamide]
pIC50 [1]: > 8.00

CN1C(=O)C(N2CCc3c(nn(Cc4ccccc4)c3Cl)C2=O)Cc2c[nH]c3cccc1c23 (racemic) [T-32, (±)-3-(2-benzyl-3-chloro-7-oxo-2,4,5,7-tetrahydro-6H-pyrazole [3,4-c]pyridin-6-yl)-1-methyl-1,3,4,6-tetrahydro-2H-azacyclo [4,3,2-cd] indole-2-one]
pIC50 [1]: > 8.00

CN1C(=O)C(NC(=O)c2nnc(Cc3ccccc3)[nH]2)Cc2cn(-c3cncn3C)c3cccc1c23 (racemic) [T-74, (±)-5-benzyl-N-(1-methyl-6-(1-methyl-1H-imidazol-5-yl)-2-oxo-2,3,4,6-tetrahydro-1H-azacyclo [4,3,2-cd]indol-3-yl)-4H-1,2,4-triazole-3-carboxamide]
pIC50 [1]: > 8.00

CN1C(=O)C(NC(=O)c2nnc(Cc3ccccc3)[nH]2)Cc2c[nH]c3ccc(F)c1c23 (racemic) [T-131, (±)-5-benzyl-N-(9-fluoro-1-methyl-2-oxo-2,3,4,6-tetrahydroazepincd [4,3,2-cd]indol-3-yl)-4H-1,2,4-triazole-3-carboxamide]
pIC50 [1]: > 8.00

CN1C(=O)C(NC(=O)c2nnc(Cc3ccccc3)[nH]2)Cc2cn(-c3cccnc3)c3cccc1c23 (racemic) [T-101, (±)-5-benzyl-N-(1-methyl-2-oxo-6-(pyridin-3-yl)-2,3,4,6-tetrahydro-1H-azacyclo [4,3,2-cd]indol-3-yl)-4H-1,2,4-triazole-3-carboxamide]
pIC50 [1]: 7.00 to 8.00

CN1C(=O)C(NC(=O)c2nnc(Cc3ccccc3)[nH]2)Cc2cn(-c3cnn(C)c3)c3cccc1c23 (racemic) [T-34, (±)-5-benzyl-N-(1-methyl-6-(1-methyl-1H-pyrazol-4-yl)-2-oxo-2,3,4,6-tetrahydro-1H-azacyclo [4,3,2-cd]indol-3-yl)-4H-1,2,4-triazole-3-carboxamide]
pIC50 [1]: > 8.00
pIC50 [3]: 7.30

CN1C(=O)C(NC(=O)c2nnc(Cc3ccccc3)[nH]2)Cc2cn(-c3ncccc3OC(F)F)c3cccc1c23 (racemic) [T-107, (±)-5-benzyl-N-(6-(3-(difluoromethoxy)pyridin-2-yl)-1-methyl-2-oxy-2,3,4,6-tetrahydro-1H-azacyclo [4,3,2-cd]indol-3-yl)-4H-1,2,4-triazole-3-carboxamide]
pIC50 [1]: > 8.00

CN1C(=O)C(NC(=O)c2ncc(Cc3ccccc3)o2)Cn2cc(-c3ccnn3C)c3cccc1c32 (racemic) [T-83, (±)-5-benzyl-N-(1-methyl-7-(1-methyl-1H-pyrazol-5-yl)-2-oxo-1,2,3,4-tetrahydro-[1,4]diazepino[3,2,1-hi]indol-3-yl)-oxazole-2-carboxamide]
pIC50 [1]: > 8.00

CN1C(=O)C(NC(=O)c2nnc(Cc3ccccc3)[nH]2)Cc2cn(S(=O)(=O)c3ccccc3)c3cccc1c23 (racemic) [T-21, (±)-5-benzyl-N-(1-methyl-2-oxo-6-(benzenesulfonyl)-2,3,4,6-tetrahydro-1H-aza [4,3,2-cd]indol-3-yl)-4H-1,2,4-triazole-3-carboxamide]
pIC50 [1]: 6.00 to 7.00

CN1C(=O)C(NC(=O)c2nnc(Cc3ccccc3)[nH]2)Cc2cn(C)c3cccc1c23 (racemic) [T-20, (±)-5-benzyl-N-(1,6-dimethyl-2-oxo-2,3,4,6-tetrahydro-1H-azacyclo [4,3,2-cd]indol-3-yl)-4H-1,2,4-triazole-3-carboxamide]
pIC50 [1]: 7.00 to 8.00

COC(=O)c1ncncc1-n1cc2c3c(cccc31)N(C)C(=O)C(NC(=O)c1nnc(Cc3ccccc3)[nH]1)C2 (racemic) [T-51, (±)-5-(3-(5-benzyl-4H-1,2,4-triazole-3-carboxamide)-1-methyl-2-oxo-1,2,3,4-tetrahydro-6H-azacyclo [4,3,2-cd]indol-6-yl)pyrimidine-4-carboxylic Acid Methyl Ester]
pIC50 [1]: 7.00 to 8.00

From patent publication US20250049812A1, “Compounds that Inhibit Necroptosis and Their Preparation Methods” (SHANGHAI INSTITUTE OF ORGANIC CHEMISTRY, CHINESE ACADEMY OF …, priority 2021, published 2025)
